Legend:
[1] = system: G93A-SOD1 mutant mice; assay: Neurological score and weight loss in G93A-SOD1 mice, treatment from day 80; type: in vivo, mouse; conditions: daily treatment from day 80
Description: Neurological score was performed every day starting with compound treatment at 80 days, and was determined as follows: ‘0’=full extension of hind legs away from lateral midline when the test mouse was suspended by its tail, and could hold this for 2 seconds, suspended 2-3 times; ‘1’=collapse or partial collapse of leg extension towards lateral midline (weakness) or trembling of hind legs during tail suspension; ‘2’=toes curl under at least twice during walking of 12 inches, or any part of foot drags along cage bottom/table; ‘3’=rigid paralysis or minimal joint movement, foot not being used for forward motion; and ‘4’=mouse cannot right itself within 30 seconds from either side. Upon reaching a score of 2, animals were given a fresh Petri dish with wet food in the dish daily. When mice achieved a score of 4 for two consecutive days they were euthanized.
Mice were weighed daily starting on the day of initiation of compound administration in order to assess disease progression and readjust compound dosage. A digital balance with a step of 0.01 g was used, and mice were placed in a small plastic container on the scale when weighed. Weight was taken between 11 am and 1 pm every day.

[2] = system: hypothalamic neural precursor cells; assay: Hypothalamic neurogenesis (BrdU); type: in vivo, mouse (C57BL/6); conditions: 10 mg/kg twice daily i.p.
Description: FIG. 27. Example 45 Compound (P7C3) Augments Hypothalamic Neurogenesis. Administration of P7C3 for a one month period of time augments proliferation of hypothalamic neural precursor cells (shown in red) in the arcuate nucleus (ARC), dorsomedial hypothalamus (DMH) and ventralmedial hypothalamus (VMH). Micrographs shown are representative of staining from every third section throughout the hypothalamus in 4-6 mice for each treatment group.
It was evaluated whether P7C3 might augment hypothalamic neurogenesis by administering either vehicle or P7C3 (10 mg/kg twice daily, i.p.) to nine week old male C57BL/6 mice, starting two days before implantation of 7 day Alzet osmotic minipumps (model 1007d) loaded with BrdU (1 mg/kg). Pumps were connected to a cannula that delivered BrdU at a constant rate into the left lateral ventricle for the seven day period, during which time animals continued to receive either vehicle or P7C3. Pumps were surgically removed at the conclusion of their 7 day operating period, and mice were allowed to survive for 4 more weeks, during which time they continued to receive either vehicle or P7C3. At the end of the 4 week period, mice were deeply anesthetized with intraperitoneal (i.p.) injection of mouse anesthetic cocktail and transcardially perfused with 4% paraformaldehyde (PFA) in phosphate buffered saline (pH 7.4). […]

[3] = system: hippocampal neurogenesis in the DG; assay: Comparison of P7C3 compounds and antidepressant drugs: DG BrdU labeling after i.c.v. infusion; type: in vivo, mouse; conditions: 10 μM i.c.v. for 7 days
From the text: The neuroprotective efficacies of both P7C3 and P7C3-A20 were next compared to currently marketed antidepressant medications, using screening conditions identical to those by which P7C3 was originally discovered. This experiment was based on the antidepressant actions of P7C3 and P7C3-A20 characterized here, and the dependence on hippocampal neurogenesis for behavioral efficacy of some marketed antidepressant medications in mice.
Proneurogenic efficacies in the DG of P7C3 and P7C3A20 were compared to those of vehicle (artificial cerebrospinal fluid) and several marketed antidepressant compounds (Sigma-Aldrich, St. Louis, Mo.) according to established methods. In brief, mice were housed individually in cages without running wheels or any form of environmental enrichment, in order to create an environment predicted to have as low of a baseline level of hippocampal neurogenesis as possible. Compounds (10 μM, i.c.v.) were administered for 7 days via subcutaneously implanted Alzet osmotic minipumps connected to a cannula directed into the left lateral ventricle, with implantation day designated as day 0. Starting on day 1, mice also received daily injections of BrdU (50 mg/kg, i.p.) at 9 am daily, for 6 days. Twenty four hours after the sixth BrdU injection, mice were transcardially perfused as described above.

COc1cccc(NCC(F)Cn2c3ccc(Br)cc3c3cc(Br)ccc32)c1 (stereo not drawn) [Example P7C3A20, N-(3-(3,6-dibromo-9H-carbazol-9-yl)-2-fluoropropyl)-3-methoxyaniline]
other measures of disease progression (neurological score or weight loss) [1]: did not observe any delay in other measures of disease progression

OC(CNc1ccccc1)Cn1c2ccc(Br)cc2c2cc(Br)ccc21 (stereo not drawn) [Example P7C3]
hypothalamic neurogenesis (BrdU positive staining) [2]: markedly enhances hypothalamic neurogenesis
increase of DG neurogenesis (BrdU labeling) over vehicle [3]: about 100%

Reference: patent publication US10183011B2, “Anti-depression compounds” (Board of Regents of the University of Texas System, priority 2009, dated 2019)
